{
  "source": "patent US20180326055A1",
  "about": "“NANOSTRUCTURE” (RIKEN, priority 2017, published 2018)",
  "test_system": "HeLa cell",
  "experiment": "Delivery of PI by nanocapsule into cells (fluorescent microscope)",
  "format": "cell-based",
  "settings": "incubated 1 hour",
  "experimental": "PI-encapsulating nanocapsule was prepared in the same manner as described in Example 2. The PI-encapsulating nanocapsule dispersion was incubated with HeLa cell for 1 hour and washed with a buffer solution several times to remove the nanocapsule and free PI outside completely. The location of PI was evaluated by fluorescent microscope observation. PI alone incubated with HeLa cell for 1 hour was used as a negative control.",
  "data": [
    {"smiles": "CC[N+](C)(CC)CCC[n+]1c(-c2ccccc2)c2cc(N)ccc2c2ccc(N)cc21.[I-].[I-]", "note": "[PI, propidium iodide]", "values": [
      {"measurement": "uptake of PI by cells", "value": "not taken up by cells"}
    ]}
  ]
}
